Patent publication US7759397B2, “6-amino(aza)indane compounds suitable for treating disorders that respond to modulation of the dopamine D3 receptor” (Abbott GmbH & Co. KG, priority 2004, dated 2010)

What was measured:
[1] = target: T1, human dopamine D3 receptors (Homo sapiens, UniProt P35462); experiment: Dopamine D3 receptor binding, displacement of [125I]-iodosulpride; conditions: ratio of receptor binding constants D2 over D3
T1 construct: expressed in transfected cells
Protocol: (§1) The substance to be tested was either dissolved in methanol/Chremophor® (BASF-AG) or in dimethyl sulfoxide and then diluted with water to the desired concentration.
(§2) Each assay mixture was run in triplicate.
The incubation buffer contained 50 mM tris, 120 mM NaCl, 5 mM KCl, 2 mM CaCl2, 2 mM MgCl2 and 0.1% bovine serum albumin, 10 μM […] and 0.1% ascorbic acid (prepared fresh daily). The buffer was adjusted to pH 7.4 with HCl. Dopamine D2L receptor:
(§3) After having been incubated at 25° C. for 60 minutes, the assay mixtures were filtered through a Whatman GF/B glass fiber filter under vacuum using a cell collecting device. The filters were transferred to scintillation viols using a filter transfer system. After 4 ml of Ultima Gold® (Packard) have been added, the samples were shaken for one hour and the radioactivity was then counted in a Beta-Counter (Packard, Tricarb 2000 or 2200CA). The cpm values were converted into dpm using a standard quench series and the program belonging to the instrument.
(§4) The inhibition curves were analyzed by means of iterative nonlinear regression analysis using the Statistical Analysis System (SAS) which is similar to the “LIGAND” program described by Munson and Rodbard.

[2] = target: T1, human dopamine D3 receptors; experiment: as above; conditions: membranes of HEK-293 cells stably expressing human D3; 0.1 nM [125I]-iodosulpride; 25° C., 60 minutes; read-out: Ki(D3)* receptor binding constant
[3] = target: T2, human dopamine D2L receptors (long isoform) (Homo sapiens, UniProt P14416); experiment: Dopamine D2L receptor binding, displacement of [125I] iodospiperone; conditions: membranes of HEK-293 cells stably expressing human D2L; 0.01 nM [125I] iodospiperone; 25° C., 60 minutes; read-out: Ki(D2)* receptor binding constant
T2 construct: expressed in transfected cells
T2 sequence (P14416 whole entry, canonical isoform): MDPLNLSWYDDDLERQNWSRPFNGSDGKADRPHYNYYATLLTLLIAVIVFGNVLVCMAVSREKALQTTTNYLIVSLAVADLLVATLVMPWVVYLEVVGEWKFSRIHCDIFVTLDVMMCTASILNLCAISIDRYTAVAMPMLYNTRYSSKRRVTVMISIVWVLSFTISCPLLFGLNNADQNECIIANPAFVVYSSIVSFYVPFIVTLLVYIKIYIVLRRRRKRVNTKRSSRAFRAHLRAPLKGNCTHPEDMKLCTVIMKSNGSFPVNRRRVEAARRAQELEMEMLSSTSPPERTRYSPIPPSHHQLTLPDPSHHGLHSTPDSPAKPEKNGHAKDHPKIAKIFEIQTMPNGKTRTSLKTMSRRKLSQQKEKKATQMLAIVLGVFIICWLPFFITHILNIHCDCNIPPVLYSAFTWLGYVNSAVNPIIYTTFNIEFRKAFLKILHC
Protocol: as §1, §2
The incubation buffer contained 50 mM tris, 120 mM NaCl, 5 mM KCl, 2 mM CaCl2, 2 mM MgCl2 and 0.1% bovine serum albumin. The buffer was adjusted to pH 7.4 with HCl.
as §3, §4

T1 sequence (P35462 whole entry): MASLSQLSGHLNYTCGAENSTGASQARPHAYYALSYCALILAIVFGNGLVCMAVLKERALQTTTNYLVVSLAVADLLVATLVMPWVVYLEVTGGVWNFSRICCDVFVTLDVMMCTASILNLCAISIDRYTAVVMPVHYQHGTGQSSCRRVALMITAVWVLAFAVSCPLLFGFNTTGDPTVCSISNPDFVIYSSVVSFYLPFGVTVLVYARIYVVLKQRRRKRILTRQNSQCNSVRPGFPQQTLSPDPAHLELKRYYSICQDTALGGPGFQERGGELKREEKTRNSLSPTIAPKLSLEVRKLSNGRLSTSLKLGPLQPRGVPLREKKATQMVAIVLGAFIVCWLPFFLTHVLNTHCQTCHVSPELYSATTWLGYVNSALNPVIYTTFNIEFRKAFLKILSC

SMILES | Ki(D2)*/Ki(D3)* selectivity ratio [1] | Ki [2] | Ki [3]
CCCN1CCC[C@@H]2c3cc(NS(=O)(=O)c4ccc(C(C)C)cc4)ccc3C[C@H]21 [4 (RR)-isomer] | 134 | 9.4 nM | 
CCCN1CCC[C@H]2c3cc(NS(=O)(=O)c4ccc(C(C)C)cc4)ccc3C[C@@H]21 [4 (SS)-isomer] | 17 | 1.6 nM | 
CCCN[C@@H]1Cc2ccc(NS(=O)(=O)c3ccc(C(C)C)cc3)cc2C1 [Example 1, 4-Isopropyl-N—((R)-2-propylamino-indan-5-yl)-benzenesulfonamide] | 64 | 4 nM | 257 nM
CCCN[C@H]1Cc2ccc(NS(=O)(=O)c3ccc(C(C)C)cc3)cc2C1.Cl [Example 2, 4-Isopropyl-N—((S)-2-propylamino-indan-5-yl)-benzenesulfonamide hydrochloride] | 20 | 6.7 nM | 132 nM
CCCN[C@H]1Cc2ccc(N(C)S(=O)(=O)c3ccc(C(C)C)cc3)cc2C1 [Example 3, 4-isopropyl-N-methyl-N—((S)-2-propylamino-indan-5-yl)-benzenesulfonamide] | 22 | 7 nM | 157 nM
CCCN(CCC)[C@@H]1Cc2ccc(NS(=O)(=O)c3ccc(C(C)C)cc3)cc2C1.Cl [Example 7, N—((R)-2-Dipropylamino-indan-5-yl)-4-isopropyl-benzenesulfonamide hydrochloride] | 195 | 0.26 nM | 51 nM
